Measurements published in patent US20210220367A1, “INHALABLE FORMULATION OF A SOLUTION CONTAINING GLYCOPYRROLATE AND OLODATEROL HYDROCHLORIDE” (priority 2020, published 2021).

Test: Aerodynamic particle size distribution, Next Generation Pharmaceutical Impactor (NGI)
Type: physicochemical
Conditions: sample 2 (GB 1.13 mg/ml; pH 3.0), soft mist inhaler, NGI 30 L/minute, RH 90%, HPLC per active
Method: The aerodynamic particle size distribution was determined using a Next Generation Pharmaceutical Impactor (NGI). The soft mist inhaler was held close to the NGI inlet until no aerosol was visible. The flow rate of the NGI was set to 30 L/minute and was operated under ambient temperature and a relative humidity (RH) of 90%.
The solution of sample 2 was discharged into the NGI. Fractions of the dose were deposited at different stages of the NGI, in accordance with the particle size of the fraction. Each fraction was washed from the stage and analyzed using HPLC.
The particle size distribution was expressed in terms of mass median aerodynamic diameter (MMAD) and Geometric Standard Deviation (GSD). […] The sample is sample 2 as described in Example 4 (GB 1.13 mg/ml; pH 3.0). The aerodynamic particle size distribution of sample 2 was investigated by means of the original research device of TB-OH and a new generation of cascade impactor.

| Compound | GSD | MMAD (μm) |
| --- | --- | --- |
| (3RS)-3-[(2SR)-(2-cyclopentyl-2-hydroxy-2-penylacetyl)oxy]-1,1-dimethlypyrrolidinium bromide [Glycopyrrolate] | 1.77 | 4.05 μm |
| COc1ccc(CC(C)(C)NC[C@H](O)c2cc(O)cc3c2OCC(=O)N3)cc1.Cl [Olodaterol hydrochloride, 2H-1,4-Benzoxazin-3H(4H)-one, 6-hydroxy-8-[(1R)-1-hydroxy-2-[[2-(4-methoxyphenyl)-1,1-dimethylethyl]-amino]ethyl], monohydrochloride] | 1.79 | 4.01 μm |
